One test concerns OCI-AML3 cells. The experiment in a line: Proliferation assay (spheroid growth, 8 days), OCI-AML3. It counts as cell-based, human. The note with it: Homo sapiens, OCI-AML-3, […], OCI-AML3, 8 days. The method, boiled down: (§1)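 Cells were seeded at 200 (MOLM14, OCI-AML3) or 300 (KO-52) per well in ultra-low attachment round-bottom plates with compounds at several concentrations, 0.3% DMSO, and grown 8 days at 37° C. Spheroid confluence was imaged on day 8; IC50 came from a variable-slope fit normalized to DMSO and high-dose reference compound.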

A further test has as its system MEIS1 mRNA. The experiment in a line: MEIS1 mRNA expression assay (Quantigene Singleplex) in MOLM14 cells.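 Further: MEIS1 transcript levels read by probe hybridization and normalized to RPL28 mRNA, with IC50 fitted to fold changes across a rising compound concentration series.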 The note with it: Homo sapiens, MOLM-14, 48 h, 48 hours incubation. Format: cell-based, human.
In test [1] the target is menin/MLL (terbium chelate-labeled menin, FITC-MBM1 peptide) (Homo sapiens (Human), UniProt O00255). The experiment in a line: Menin/MLL homogenous time-resolved fluorescence (HTRF) assay.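 Further: IC50 from percent inhibition of HTRF signal, normalized between wells without competitor and wells with a saturating competitor that displaces FITC-MBM1 from His-tagged menin.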 The note with it: HTRF-30 min incubation IC50, 30 min incubation. It counts as binding. (In TR-FRET formats the signal depends on donor and acceptor labels being close together.)
The next test relates to KO-52 cells. In words: Proliferation assay (spheroid growth, 8 days), KO-52 control cell line. Format: cell-based, human. The note with it: Homo sapiens, […], read-out: spheroid assay_OneTime KO-52 IC50. The method, boiled down:
as §1

For a further test, the system named is MOLM14 cells. In words: Proliferation assay (spheroid growth, 8 days), MOLM14.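 Further: spheroid size read as confluence by live-cell imaging, compounds added at a range of concentrations with 0.3% DMSO, DMSO-treated wells = 0%, highest reference dose = low control.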 The note with it: Homo sapiens, MOLM-14, […], MOLM14, 8 days; read-out: spheroid assay_OneTime MOLM14 IC50. It counts as cell-based, human.

What is called IC50 is the concentration that inhibits the measured activity by half.

Molecules are shown by their SMILES. Counter-ions that a name gives are not always drawn.

Sequence of menin/MLL (terbium chelate-labeled menin, FITC-MBM1 peptide) (O00255 other isoform, or with tags, fused parts or gaps): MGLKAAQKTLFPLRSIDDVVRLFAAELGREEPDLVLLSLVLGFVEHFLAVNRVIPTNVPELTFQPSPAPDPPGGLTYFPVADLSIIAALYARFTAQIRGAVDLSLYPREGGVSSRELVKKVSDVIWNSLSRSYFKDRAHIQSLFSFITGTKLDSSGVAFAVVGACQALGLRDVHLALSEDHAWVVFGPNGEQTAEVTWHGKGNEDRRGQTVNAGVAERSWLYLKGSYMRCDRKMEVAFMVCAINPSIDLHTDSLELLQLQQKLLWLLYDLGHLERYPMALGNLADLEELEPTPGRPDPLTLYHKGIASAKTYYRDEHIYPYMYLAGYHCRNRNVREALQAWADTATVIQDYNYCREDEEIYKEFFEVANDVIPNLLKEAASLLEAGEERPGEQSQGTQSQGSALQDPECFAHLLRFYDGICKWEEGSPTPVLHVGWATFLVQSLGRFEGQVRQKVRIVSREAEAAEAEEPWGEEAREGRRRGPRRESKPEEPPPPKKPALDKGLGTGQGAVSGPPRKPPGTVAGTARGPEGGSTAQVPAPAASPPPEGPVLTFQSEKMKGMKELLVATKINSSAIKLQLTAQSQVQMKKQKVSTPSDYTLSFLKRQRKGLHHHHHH

Consider `CCN(C(=O)c1cc(F)ccc1Oc1nncnc1N1CCC2(C1)CN([C@H](C[C@H](O)CN(C)C(C)C)C(C)C)C2)C(C)C` (single isomer, unassigned) [Compound 325, N-ethyl-5-fluoro-2-((5-(2-((3*R,5*S)-5-hydroxy-6-(isopropyl(methyl)amino)-2-methylhexan-3-yl)-2,6-diazaspiro[3.4]octan-6-yl)-1,2,4-triazin-6-yl)oxy)-N-isopropylbenzamide fumarate], for which the IC50 is 190 nM with OCI-AML3 cells; 15 nM with MEIS1 mRNA; about 0.16 nM in test [1]; over 15000 nM with KO-52 cells; 16 nM with MOLM14 cells.
For `CCN(CC)C[C@H](O)C[C@H](C(C)C)N1CC2(CCN(c3ncnnc3Oc3ccc(F)cc3C(=O)N(CC)C(C)C)C2)C1` (single isomer, unassigned) [Compound 334, 2-((5-(2-((3*R,5*R)-6-(diethylamino)-5-hydroxy-2-methylhexan-3-yl)-2,6-diazaspiro[3.4]octan-6-yl)-1,2,4-triazin-6-yl)oxy)-N-ethyl-5-fluoro-N-isopropylbenzamide fumarate], in that order: 130 nM, 11 nM, 0.079 nM, over 15000 nM and 12 nM.
For `CCN(CC)C[C@H](O)C[C@@H](C(C)C)N1CC2(CCN(c3ncnnc3Oc3ccc(F)cc3C(=O)N(CC)C(C)C)C2)C1` (single isomer, unassigned) [Compound 336, 2-((5-(2-((3*S,5*R)-6-(diethylamino)-5-hydroxy-2-methylhexan-3-yl)-2,6-diazaspiro[3.4]octan-6-yl)-1,2,4-triazin-6-yl)oxy)-N-ethyl-5-fluoro-N-isopropylbenzamide fumarate] the same measures were 870 nM, 61 nM, 0.21 nM, over 15000 nM and 70 nM.
For `CCN(C)C[C@@H](O)C[C@H](C(C)C)N1CC2(CCN(c3ncnnc3Oc3ccc(F)cc3C(=O)N(CC)C(C)C)C2)C1` (single isomer, unassigned) [Compound 342, N-ethyl-2-((5-(2-((3*S,5S)-6-(ethyl(methyl)amino)-5-hydroxy-2-methylhexan-3-yl)-2,6-diazaspiro[3.4]octan-6-yl)-1,2,4-triazin-6-yl)oxy)-5-fluoro-N-isopropylbenzamide fumarate], in that order: 25 nM, 78 nM, 0.17 nM, 23 nM and 10 nM.
As for `CCN(C(=O)c1cc(F)ccc1Oc1nncnc1N1CCC2(C1)CN([C@H](C[C@H](O)CN(C)CCOC)C(C)C)C2)C(C)C` (single isomer, unassigned) [Compound 352, N-ethyl-5-fluoro-2-((5-(2-((3*R,5S)-5-hydroxy-6-((2-methoxyethyl)(methyl)amino)-2-methylhexan-3-yl)-2,6-diazaspiro[3.4]octan-6-yl)-1,2,4-triazin-6-yl)oxy)-N-isopropylbenzamide fumarate], the IC50 in the test with OCI-AML3 cells is 150 nM; with MEIS1 mRNA, 130 nM; in test [1], 0.077 nM; in the test on KO-52 cells, over 15000 nM; with MOLM14 cells, 18 nM.
For `CCN(C(=O)c1cc(F)ccc1Oc1nncnc1N1CCC2(C1)CN([C@H](C[C@@H](O)CN(C)CCOC)C(C)C)C2)C(C)C` (single isomer, unassigned) [Compound 356, N-ethyl-5-fluoro-2-((5-(2-((3*R,5R)-5-hydroxy-6-((2-methoxyethyl)(methyl)amino)-2-methylhexan-3-yl)-2,6-diazaspiro[3.4]octan-6-yl)-1,2,4-triazin-6-yl)oxy)-N-isopropylbenzamide fumarate], in that order: 46 nM, about 8.2 nM, 0.053 nM, over 15000 nM and 7 nM.
For `CC(C)[C@@H](C[C@@H](O)CN(C)C)N1CC2(CCN(c3ncnnc3Oc3ccc(F)cc3C(=O)N(C(C)C)C(C)C)C2)C1` (single isomer, unassigned) [Compound 365, 2-((5-(2-((3*R,5*R)-6-(dimethylamino)-5-hydroxy-2-methylhexan-3-yl)-2,6-diazaspiro[3.4]octan-6-yl)-1,2,4-triazin-6-yl)oxy)-5-fluoro-N,N-diisopropylbenzamide fumarate], in that order: 37 nM, 10 nM, 0.097 nM, over 15000 nM and 11 nM.
For `CC(C)[C@@H](C[C@H](O)CN(C)C)N1CC2(CCN(c3ncnnc3Oc3ccc(F)cc3C(=O)N(C(C)C)C(C)C)C2)C1` (single isomer, unassigned) [Compound 366], in that order: 76 nM, 20 nM, 0.088 nM, over 15000 nM and 17 nM.
Take `CCCN(C)C[C@H](O)C[C@H](C(C)C)N1CC2(CCN(c3ncnnc3Oc3ccc(F)cc3C(=O)N(CC)C(C)C)C2)C1` (single isomer, unassigned) [Compound 386, N-ethyl-5-fluoro-2-((5-(2-((3*R,5*R)-5-hydroxy-2-methyl-6-(methyl(propyl)amino)hexan-3-yl)-2,6-diazaspiro[3.4]octan-6-yl)-1,2,4-triazin-6-yl)oxy)-N-isopropylbenzamide fumarate]: the IC50 in the test on OCI-AML3 cells is 810 nM; with MEIS1 mRNA it was 61 nM; in test [1], about 0.59 nM; in the test on KO-52 cells it was 9600 nM; in the test on MOLM14 cells, 160 nM.
As to `CCN(C)C[C@@H](O)C[C@H](C(C)C)N1CC2(CCN(c3ncnnc3Oc3ccc(F)cc3C(=O)N(C(C)C)C(C)C)C2)C1` (single isomer, unassigned) [Compound 391, 2-((5-(2-((3*R,5*S)-6-(ethyl(methyl)amino)-5-hydroxy-2-methylhexan-3-yl)-2,6-diazaspiro[3.4]octan-6-yl)-1,2,4-triazin-6-yl)oxy)-5-fluoro-N,N-diisopropylbenzamide fumarate], the IC50 was 2100 nM with OCI-AML3 cells; 160 nM in the test on MEIS1 mRNA; 0.9 nM in test [1]; over 15000 nM in the test on KO-52 cells; 490 nM with MOLM14 cells.
Regarding `CCN(C(=O)c1cc(F)ccc1Oc1nncnc1N1CCC2(C1)CN(C(CCCN)C(C)C)C2)C(C)C` (stereo not drawn) [Compound 3, 2-((5-(2-(6-amino-2-methylhexan-3-yl)-2,6-diazaspiro[3.4]octan-6-yl)-1,2,4-triazin-6-yl)oxy)-N-ethyl-5-fluoro-N-isopropylbenzamide formate], the IC50 with OCI-AML3 cells is 310 nM; in the test on MEIS1 mRNA it was 95 nM; in test [1], 0.1 nM; in the test on KO-52 cells, over 15000 nM; in the test on MOLM14 cells, 42 nM.
For `CCN(C(=O)c1cc(F)ccc1Oc1nncnc1N1CCC2(C1)CN([C@H](CCCNC(=O)NC)C(C)C)C2)C(C)C` [Compound 8, (R)-N-ethyl-5-fluoro-N-isopropyl-2-((5-(2-(2-methyl-6-(3-methylureido)hexan-3-yl)-2,6-diazaspiro[3.4]octan-6-yl)-1,2,4-triazin-6-yl)oxy)benzamide], in that order: 2150 nM, about 650 nM, 0.43 nM, over 15000 nM and 1020 nM.
